# Results from article PMC9410265, “Citrate Regulates the Saccharomyces cerevisiae Mitochondrial GDP/GTP Carrier (Ggc1p) by Triggering Unidirectional Transport of GTP” (Journal of Fungi, 2022).
# Substitutions are numbered along the chain they refer to. Names may count otherwise.
# T1: Ggc1p (yeast mitochondrial GDP/GTP carrier) (Saccharomyces cerevisiae, UniProt P38988)
# T1 construct: gene GGC1; E. coli BL21(DE3) inclusion bodies, sarkosyl-solubilized, reconstituted in liposomes; calculated 33,215 Da with initiator Met
# T1 sequence (P38988 1-300): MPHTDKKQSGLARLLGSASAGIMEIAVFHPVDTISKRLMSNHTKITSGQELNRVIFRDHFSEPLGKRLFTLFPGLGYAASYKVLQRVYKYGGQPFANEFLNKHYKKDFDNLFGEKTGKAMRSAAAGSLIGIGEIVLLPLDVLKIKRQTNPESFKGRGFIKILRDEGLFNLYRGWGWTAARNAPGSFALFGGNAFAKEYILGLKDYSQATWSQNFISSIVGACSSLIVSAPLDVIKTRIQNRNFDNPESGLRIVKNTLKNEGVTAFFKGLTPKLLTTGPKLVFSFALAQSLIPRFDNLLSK
# T2: Ggc1p (yeast mitochondrial GDP/GTP carrier) (Saccharomyces cerevisiae, UniProt P38988, R156A)
# T2 construct: gene GGC1; E. coli BL21(DE3) inclusion bodies, sarkosyl-solubilized, reconstituted in liposomes; calculated 33,215 Da with initiator Met
# T2 sequence (P38988 1-300 R156A): T1 sequence (P38988 1-300) with R156A
# T3: Ggc1p (yeast mitochondrial GDP/GTP carrier) (Saccharomyces cerevisiae, UniProt P38988, K154A)
# T3 construct: gene GGC1; E. coli BL21(DE3) inclusion bodies, sarkosyl-solubilized, reconstituted in liposomes; calculated 33,215 Da with initiator Met
# T3 sequence (P38988 1-300 K154A): T1 sequence (P38988 1-300) with K154A
# B1: Ggc1p (yeast mitochondrial GDP/GTP carrier) (Saccharomyces cerevisiae S288C) (protein)
# chain: T1 sequence (P38988 1-300)
# notes: E. coli BL21(DE3) inclusion bodies, sarkosyl-solubilized, reconstituted in liposomes; calculated 33,215 Da with initiator Met
# How the values were obtained:
# [1] = target: T1, Ggc1p (yeast mitochondrial GDP/GTP carrier); test: inhibition of [[…]-3H]GTP uptake into proteoliposomes; type: biochemical; conditions: citrate-induced GTP uptake (5 mM internal citrate); 1 μM [8-3H]GTP; pH 7.0, 25 °C
# [2] = target: T1, Ggc1p (yeast mitochondrial GDP/GTP carrier); test: as above; type: biochemical; conditions: GTP/GTP exchange (5 mM internal GTP) and citrate-induced uptake (5 mM internal citrate); 1 μM [8-3H]GTP; pH 7.0, 25 °C
# [3] = target: T1, Ggc1p (yeast mitochondrial GDP/GTP carrier); test: [[…]-3H]GTP uptake into effector-loaded proteoliposomes; type: biochemical; conditions: activator of GTP uniport; 5 mM internal compound; 1 μM external [8-3H]GTP; pH 7.0, 25 °C
# [4] = target: T2, Ggc1p (yeast mitochondrial GDP/GTP carrier); test: radiolabelled GTP uptake into citrate-loaded proteoliposomes, […] s; type: biochemical; conditions: activator; 5 mM internal citrate; 1 μM external [8-3H]GTP; pH 7.0, 25 °C
# [5] = target: T1, Ggc1p (yeast mitochondrial GDP/GTP carrier); test: radiolabelled GTP uptake into proteoliposomes, activation by internal citrate; type: biochemical; conditions: activator (trans-activation of GTP uniport), not transported; allosteric, site distinct from GTP site; 10 μM external [8-3H]GTP; pH 7.0, 25 °C
# [6] = target: T3, Ggc1p (yeast mitochondrial GDP/GTP carrier); test: radiolabelled GTP uptake into citrate-loaded proteoliposomes, […] s; type: biochemical; conditions: activator; 5 mM internal citrate; 1 μM external [8-3H]GTP; pH 7.0, 25 °C
# purified protein = substrate: Nc1nc2c(ncn2[C@@H]2O[C@H](COP(=O)(O)OP(=O)(O)OP(=O)(O)O)[C@@H](O)[C@H]2O)c(=O)[nH]1; test: purified protein; type: biochemical, Saccharomyces cerevisiae; conditions: citrate-induced GTP uniport, internal citrate 0.15-0.6 mM, external 0.25-1 μM [8-3H]GTP, pH 7.0, 25 °C, labelled compound
molecule,measurement,setting,value
CO[C@H](C/C=C\C=C\CC/C=C/C[C@H](C)/C=C/C(=C\C(=O)O)CC(=O)O)/C(C)=C\C=C(/C)C(=O)O [bongkrekic acid],% inhibition at 0.1 mM,[1],"CIGU was partially inhibited by p-hydroxymercuribenzoate, carboxyatractyloside and bongkrekate"
Cc1cc(C2(c3cc(C)c(O)c(Br)c3)OS(=O)(=O)c3ccccc32)cc(Br)c1O [bromocresol purple],% inhibition at 0.3 mM,[2],tannic acid and bromocresol purple (inhibitors of the mitochondrial glutamate carriers)
O=C(O)/C=C(/CC(=O)O)C(=O)O [cis-aconitate],[8-3H]GTP uptake into effector-loaded proteoliposomes,[3],"GTP uptake was also observed with proteoliposomes containing citrate, isocitrate, cis-aconitate"
O=C(O)CC(O)(CC(=O)O)C(=O)O [citrate],% of wild-type uptake,[4],CIGU in K154A and R156A mutants were markedly decreased with respect to that of wild-type
same,EC50,[5],510 µM
same,% of wild-type uptake,[6],CIGU in K154A and R156A mutants were markedly decreased with respect to that of wild-type
O=C(O)C[C@H](C(=O)O)[C@@H](O)C(=O)O [isocitrate],[8-3H]GTP uptake into effector-loaded proteoliposomes,[3],"GTP uptake was also observed with proteoliposomes containing citrate, isocitrate, cis-aconitate"
B1,Km,purified protein,0.72 µM
